Assay: mn = molality of the nth substance listed, in mol/kg
Conditions: 101 kPa, Liquid; for speed of sound: Frequency=3 MHz, Sing-around technique in a fixed-path interferometer; for mass density: Vibrating tube method

CC(=O)NCC(=O)O [N-acetylglycine] + O
Conditions | mass density, 288.15 K [kg/m3] | mass density, 293.15 K [kg/m3] | mass density, 298.15 K [kg/m3] | mass density, 303.15 K [kg/m3] | mass density, 308.15 K [kg/m3] | speed of sound, 288.15 K [m/s] | speed of sound, 293.15 K [m/s] | speed of sound, 298.15 K [m/s] | speed of sound, 303.15 K [m/s] | speed of sound, 308.15 K [m/s]
m1 = 0.0203 | 1000.3 | 999.25 | 997.843 | 996.325 | 994.871 | 1467.5 | 1483.6 | 1497.7 | 1510 | 1520.3
m1 = 0.06014 | 1001.63 | 1000.6 | 999.038 | 997.499 | 996.032 | 1469.4 | 1485.4 | 1499 | 1511.4 | 1521.5
m1 = 0.1002 | 1002.81 | 1001.87 | 1000.36 | 998.819 | 997.262 | 1471.4 | 1486.8 | 1500.5 | 1512.4 | 1522.6
m1 = 0.1403 | 1004 | 1003.13 | 1001.63 | 1000.17 | 998.641 | 1473.3 | 1488.9 | 1502.1 | 1514.2 | 1524
m1 = 0.1695 | 1004.75 | 1003.97 | 1002.73 | 1001.25 | 999.567 | 1474.8 | 1489.9 | 1503.3 | 1514.9 | 1524.9
m1 = 0.2002 | 1005.54 | 1004.9 | 1003.76 | 1002.59 | 1001.25 | 1475.9 | 1491.4 | 1504.2 | 1515.6 | 1525.8

Reference: the NIST ThermoML archive (doi:10.1016/j.tca.2014.05.014)
